Key:
[1] = target: Gag-Pol polyprotein (Human immunodeficiency virus type 1 group M subtype B (isolate BRU/LAI), UniProt P03367); assay: Enzymatic Assay; settings: pH 5.5
Procedure: Binding constants for inhibition of HIV protease were determined as previously described.

[2] = target: Cathepsin D (Homo sapiens, UniProt P07339); assay: Enzymatic Assay; settings: pH 5.5
Cathepsin D, sequence (P07339 65-162 limits assumed): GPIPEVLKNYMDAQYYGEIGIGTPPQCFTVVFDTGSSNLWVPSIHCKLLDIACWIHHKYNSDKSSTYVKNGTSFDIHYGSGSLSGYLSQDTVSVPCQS
Cathepsin D, sequence (P07339 169-412 limits assumed): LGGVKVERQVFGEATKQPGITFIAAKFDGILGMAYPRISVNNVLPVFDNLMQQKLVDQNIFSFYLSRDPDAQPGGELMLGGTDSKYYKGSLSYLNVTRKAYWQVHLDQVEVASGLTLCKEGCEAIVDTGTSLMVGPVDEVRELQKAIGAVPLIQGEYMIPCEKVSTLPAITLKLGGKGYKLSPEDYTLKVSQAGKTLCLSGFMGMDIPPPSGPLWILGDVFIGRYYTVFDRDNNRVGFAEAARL

SMILES: Cc1cccc(C)c1OCC(=O)N(Cc1ccccc1)CC1CNC[C@H]1CN(CC(C)C)S(=O)(=O)c1ccccc1 (stereo not given in full) [Aspartyl protease inhibitor, 13]
- IC50 [1]: 2.2 µM
- IC50 [2]: > 40 µM

SMILES: Cc1cccc(C)c1OCC(=O)N(Cc1ccccc1)CC1CNC[C@H]1CN(CC(C)C)S(=O)(=O)c1ccc(N)cc1 (stereo not given in full) [Aspartyl protease inhibitor, 14]
- IC50 [1]: 3.3 µM
- IC50 [2]: > 40 µM

SMILES: Cc1ccc(S(=O)(=O)N(CC(C)C)C[C@@H]2CNCC2CN(Cc2ccccc2)C(=O)COc2c(C)cccc2C)cc1 (stereo not given in full) [Aspartyl protease inhibitor, 15]
- IC50 [1]: 12.1 µM
- IC50 [2]: > 40 µM

SMILES: COc1cc(Br)c(OC(=O)N(Cc2ccccc2)CC2CNC[C@H]2CN(CCc2ccc(Cl)cc2Cl)C(=O)CCCc2ccccc2)cc1OC (stereo not given in full) [Aspartyl protease inhibitor, 16]
- IC50 [1]: 19.8 µM
- IC50 [2]: 1.05 µM

SMILES: COc1cc(Br)c(OC(=O)N(Cc2ccccc2)CC2CNC[C@H]2CN(CCc2ccc(Cl)cc2Cl)C(=O)CCN2C(=O)c3ccccc3C2=O)cc1OC (stereo not given in full) [Aspartyl protease inhibitor, 17]
- IC50 [1]: 22.1 µM
- IC50 [2]: 0.57 µM

— BindingDB's records for doi:10.1002/cmdc.200500008 (Philipps-Universität Marburg, 2006)
